# Test results published in PMC8916643, “Molecular physiology of pumiliotoxin sequestration in a poison frog” (PLoS ONE, 2022).
# Tests used:
# [1] = target: T1, human recombinant CYP2C19 (Homo sapiens, UniProt P33261); test: CYP phenotyping panel (PTX 251D clearance); assay type: in vitro ADME; details: 1E-07 M PTX 251D; after 60 minutes
# T1 construct: Eurofins Discovery Services (Eurofins Panlabs Inc) ran the assay
# Protocol: (§1) Assays for human CYP activity (CYP phenotyping), CYP2D6 metabolite discovery (metID), ion channel inhibition (CiPA), and G-protein coupled receptor (GPCR) activity (gpcrMAX) were performed through Eurofins Discovery Services (Eurofins Panlabs Inc, St. Charles MO, USA). In the CYP phenotyping panel, human recombinant CYP1A2, CYP2B6, CYP2C8, CYP2C9, CYP2C19, CYP2D6, and CYP3A4 were included in the assay. A concentration of 1E-07 M of PTX 251D was tested, and the percent compound remaining was quantified at 0, 15, 30, 45, and 60 minutes using HPLC-MS/MS. As a positive control, a reference compound was used for each CYP tested (see S1 File for results). In the CYP2D6 metabolism assay, human recombinant CYP2D6 was incubated with an initial concentration of 10 μM and metabolites were quantified after 90 minutes using LC-MS/MS. Two replicates were used for the CYP phenotyping panel and one replicate was used for CYP2D6 metabolite assay. The CiPA assay was a cell-based QPatch on voltage-gated sodium channel NaV1.5 (peak and late/agonist), voltage-gated potassium channels Kv4.3/KChIP2, hERG, KCNQ1/minK, Kir2.1, and voltage-gated calcium channel Cav1.2. The concentrations of PTX 251D assayed were 3, 10, and 30 μM, and a reference compound for each channel was used (see S1 File for results and individual QPatch parameters). In the gpcrMAX assay a panel of 165 GPCRs was tested through the DiscoverX PathHunter beta-arrestin enzyme fragment complementation technology, and a concentration of 10 μM PTX 251D was tested for both agonist and antagonist activity along with a reference compound for each GPCR (see S1 File for results).
# [2] = target: T2, human recombinant CYP2C8 (Homo sapiens, UniProt P10632); test: CYP phenotyping panel (PTX 251D clearance); assay type: in vitro ADME; details: 1E-07 M PTX 251D; after 60 minutes
# T2 construct: Eurofins Discovery Services (Eurofins Panlabs Inc) ran the assay
# T2 sequence (P10632 1-490): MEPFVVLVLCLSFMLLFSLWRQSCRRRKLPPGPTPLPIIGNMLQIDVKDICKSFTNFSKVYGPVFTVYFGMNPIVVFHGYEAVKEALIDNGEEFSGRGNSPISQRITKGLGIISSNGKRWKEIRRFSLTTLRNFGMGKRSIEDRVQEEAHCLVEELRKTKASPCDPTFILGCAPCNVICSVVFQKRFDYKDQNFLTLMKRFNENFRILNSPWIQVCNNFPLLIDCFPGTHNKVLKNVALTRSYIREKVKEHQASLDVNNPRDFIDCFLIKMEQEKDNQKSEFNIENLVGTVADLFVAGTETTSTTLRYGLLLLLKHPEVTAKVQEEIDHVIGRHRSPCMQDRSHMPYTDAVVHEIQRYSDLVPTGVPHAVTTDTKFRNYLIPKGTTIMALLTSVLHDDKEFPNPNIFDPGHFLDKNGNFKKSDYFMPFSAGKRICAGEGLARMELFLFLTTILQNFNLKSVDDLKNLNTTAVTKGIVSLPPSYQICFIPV
# Protocol: as §1
# [3] = target: T3, human recombinant CYP2D6 (Homo sapiens, UniProt P10635); test: CYP phenotyping panel (PTX 251D clearance); assay type: in vitro ADME; details: 1E-07 M PTX 251D
# T3 construct: Eurofins Discovery Services (Eurofins Panlabs Inc) ran the assay
# T3 sequence (P10635 whole entry): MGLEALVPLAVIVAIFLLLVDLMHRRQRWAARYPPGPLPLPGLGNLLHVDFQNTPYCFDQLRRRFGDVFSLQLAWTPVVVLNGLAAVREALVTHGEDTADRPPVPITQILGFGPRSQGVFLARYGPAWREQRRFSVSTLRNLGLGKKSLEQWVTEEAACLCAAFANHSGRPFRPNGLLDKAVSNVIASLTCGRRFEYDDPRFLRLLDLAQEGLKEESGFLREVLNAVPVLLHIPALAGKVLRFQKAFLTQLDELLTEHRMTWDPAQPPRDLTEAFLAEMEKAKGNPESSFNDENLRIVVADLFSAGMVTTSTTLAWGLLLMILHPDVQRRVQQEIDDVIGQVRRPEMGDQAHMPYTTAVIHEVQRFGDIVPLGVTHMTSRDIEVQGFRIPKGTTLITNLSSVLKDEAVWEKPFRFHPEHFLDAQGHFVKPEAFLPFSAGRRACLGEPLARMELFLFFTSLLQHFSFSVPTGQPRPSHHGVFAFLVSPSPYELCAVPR
# Protocol: as §1
# [4] = target: T4, Kv4.3/KChIP2 (Homo sapiens, UniProt Q9UK17); test: CiPA cell-based QPatch ion channel inhibition; details: maximum concentration of 30 uM
# T4 construct: Eurofins Discovery Services (Eurofins Panlabs Inc) ran the assay
# T4 sequence (Q9UK17 1-655): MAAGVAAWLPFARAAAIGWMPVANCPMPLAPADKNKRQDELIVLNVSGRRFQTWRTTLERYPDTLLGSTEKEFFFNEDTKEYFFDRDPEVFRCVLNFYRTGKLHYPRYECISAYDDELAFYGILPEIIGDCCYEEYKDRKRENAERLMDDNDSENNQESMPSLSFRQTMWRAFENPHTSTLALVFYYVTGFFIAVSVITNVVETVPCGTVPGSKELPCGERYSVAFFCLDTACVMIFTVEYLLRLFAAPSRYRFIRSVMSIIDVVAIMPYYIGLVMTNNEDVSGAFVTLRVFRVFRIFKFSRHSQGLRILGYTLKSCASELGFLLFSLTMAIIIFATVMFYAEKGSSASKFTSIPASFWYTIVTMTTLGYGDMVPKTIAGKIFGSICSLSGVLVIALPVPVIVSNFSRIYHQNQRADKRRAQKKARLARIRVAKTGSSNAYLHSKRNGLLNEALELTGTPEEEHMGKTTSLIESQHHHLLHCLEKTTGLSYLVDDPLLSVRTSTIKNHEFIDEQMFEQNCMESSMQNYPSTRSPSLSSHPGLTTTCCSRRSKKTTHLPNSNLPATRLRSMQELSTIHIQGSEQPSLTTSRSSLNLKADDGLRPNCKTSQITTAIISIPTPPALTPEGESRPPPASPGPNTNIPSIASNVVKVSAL
# T4 sequence (Q9NS61 1-270 partner): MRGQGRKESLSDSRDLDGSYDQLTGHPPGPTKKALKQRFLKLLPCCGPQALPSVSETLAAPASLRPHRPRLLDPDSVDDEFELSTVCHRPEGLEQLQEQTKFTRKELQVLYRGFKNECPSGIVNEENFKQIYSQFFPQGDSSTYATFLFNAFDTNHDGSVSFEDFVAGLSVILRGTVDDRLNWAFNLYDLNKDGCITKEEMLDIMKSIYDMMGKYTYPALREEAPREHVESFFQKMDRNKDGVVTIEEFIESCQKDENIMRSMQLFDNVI
# Protocol: as §1
# [5] = target: T5, hERG (Homo sapiens, UniProt Q12809); test: CiPA cell-based QPatch ion channel inhibition; details: maximum concentration of 30 uM
# T5 construct: Eurofins Discovery Services (Eurofins Panlabs Inc) ran the assay
# Protocol: as §1
# [6] = target: T6, voltage-gated calcium channel Cav1.2 (Homo sapiens, UniProt Q13936); test: CiPA cell-based QPatch ion channel inhibition; details: maximum concentration of 30 uM
# T6 construct: Eurofins Discovery Services (Eurofins Panlabs Inc) ran the assay
# T6 sequence (Q13936 whole entry): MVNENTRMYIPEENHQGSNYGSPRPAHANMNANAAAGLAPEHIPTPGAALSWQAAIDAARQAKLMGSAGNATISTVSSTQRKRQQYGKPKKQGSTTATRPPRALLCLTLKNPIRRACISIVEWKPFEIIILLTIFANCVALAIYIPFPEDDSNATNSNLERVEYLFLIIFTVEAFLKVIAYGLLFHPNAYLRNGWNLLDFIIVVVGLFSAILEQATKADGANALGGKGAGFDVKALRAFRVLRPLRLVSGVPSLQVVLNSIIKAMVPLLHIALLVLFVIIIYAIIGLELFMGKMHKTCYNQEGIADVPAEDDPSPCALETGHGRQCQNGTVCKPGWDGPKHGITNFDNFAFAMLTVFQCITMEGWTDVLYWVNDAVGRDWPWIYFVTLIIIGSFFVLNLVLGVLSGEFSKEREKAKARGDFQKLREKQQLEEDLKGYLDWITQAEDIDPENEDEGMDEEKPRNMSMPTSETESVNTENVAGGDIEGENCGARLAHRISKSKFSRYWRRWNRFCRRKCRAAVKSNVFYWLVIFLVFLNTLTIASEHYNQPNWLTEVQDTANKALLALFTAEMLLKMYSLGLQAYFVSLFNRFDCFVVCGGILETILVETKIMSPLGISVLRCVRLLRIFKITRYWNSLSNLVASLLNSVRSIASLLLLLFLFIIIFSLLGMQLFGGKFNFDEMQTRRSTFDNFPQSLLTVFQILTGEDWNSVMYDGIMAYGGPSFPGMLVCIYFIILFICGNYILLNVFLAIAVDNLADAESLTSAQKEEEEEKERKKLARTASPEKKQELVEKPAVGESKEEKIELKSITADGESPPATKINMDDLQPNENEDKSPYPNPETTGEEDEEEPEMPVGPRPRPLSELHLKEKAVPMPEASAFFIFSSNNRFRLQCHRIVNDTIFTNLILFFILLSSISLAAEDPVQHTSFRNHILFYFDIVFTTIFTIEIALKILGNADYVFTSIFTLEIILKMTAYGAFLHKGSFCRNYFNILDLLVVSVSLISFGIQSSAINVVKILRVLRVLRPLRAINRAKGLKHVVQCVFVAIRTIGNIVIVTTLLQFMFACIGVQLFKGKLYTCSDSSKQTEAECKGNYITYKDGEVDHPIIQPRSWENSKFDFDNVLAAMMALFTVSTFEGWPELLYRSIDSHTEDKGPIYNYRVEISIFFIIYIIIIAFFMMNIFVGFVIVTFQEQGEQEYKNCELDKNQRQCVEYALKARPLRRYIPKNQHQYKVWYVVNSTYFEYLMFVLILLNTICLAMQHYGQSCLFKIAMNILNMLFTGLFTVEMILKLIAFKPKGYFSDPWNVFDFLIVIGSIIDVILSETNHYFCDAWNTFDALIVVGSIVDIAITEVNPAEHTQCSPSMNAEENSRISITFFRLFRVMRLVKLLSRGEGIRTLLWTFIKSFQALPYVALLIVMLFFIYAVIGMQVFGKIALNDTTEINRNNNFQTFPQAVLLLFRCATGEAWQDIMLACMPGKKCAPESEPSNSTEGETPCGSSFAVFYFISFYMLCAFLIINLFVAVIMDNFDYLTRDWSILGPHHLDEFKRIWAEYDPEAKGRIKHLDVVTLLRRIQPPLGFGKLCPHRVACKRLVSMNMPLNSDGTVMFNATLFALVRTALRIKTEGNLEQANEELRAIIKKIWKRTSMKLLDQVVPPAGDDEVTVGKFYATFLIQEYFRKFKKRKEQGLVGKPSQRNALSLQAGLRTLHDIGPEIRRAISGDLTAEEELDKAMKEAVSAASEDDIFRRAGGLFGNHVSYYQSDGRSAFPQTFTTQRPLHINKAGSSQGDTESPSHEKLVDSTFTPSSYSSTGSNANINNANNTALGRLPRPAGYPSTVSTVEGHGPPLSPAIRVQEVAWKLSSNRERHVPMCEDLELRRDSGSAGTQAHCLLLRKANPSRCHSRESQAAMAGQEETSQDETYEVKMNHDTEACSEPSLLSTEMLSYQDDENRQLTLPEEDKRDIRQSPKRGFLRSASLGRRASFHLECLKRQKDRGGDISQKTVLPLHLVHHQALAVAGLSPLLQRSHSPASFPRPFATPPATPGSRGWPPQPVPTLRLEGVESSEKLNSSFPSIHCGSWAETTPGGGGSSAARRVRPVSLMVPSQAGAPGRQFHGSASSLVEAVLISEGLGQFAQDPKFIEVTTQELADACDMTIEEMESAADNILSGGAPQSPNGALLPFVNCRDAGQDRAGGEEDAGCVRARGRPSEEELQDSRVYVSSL
# T6 sequence (Q08289 whole entry partner): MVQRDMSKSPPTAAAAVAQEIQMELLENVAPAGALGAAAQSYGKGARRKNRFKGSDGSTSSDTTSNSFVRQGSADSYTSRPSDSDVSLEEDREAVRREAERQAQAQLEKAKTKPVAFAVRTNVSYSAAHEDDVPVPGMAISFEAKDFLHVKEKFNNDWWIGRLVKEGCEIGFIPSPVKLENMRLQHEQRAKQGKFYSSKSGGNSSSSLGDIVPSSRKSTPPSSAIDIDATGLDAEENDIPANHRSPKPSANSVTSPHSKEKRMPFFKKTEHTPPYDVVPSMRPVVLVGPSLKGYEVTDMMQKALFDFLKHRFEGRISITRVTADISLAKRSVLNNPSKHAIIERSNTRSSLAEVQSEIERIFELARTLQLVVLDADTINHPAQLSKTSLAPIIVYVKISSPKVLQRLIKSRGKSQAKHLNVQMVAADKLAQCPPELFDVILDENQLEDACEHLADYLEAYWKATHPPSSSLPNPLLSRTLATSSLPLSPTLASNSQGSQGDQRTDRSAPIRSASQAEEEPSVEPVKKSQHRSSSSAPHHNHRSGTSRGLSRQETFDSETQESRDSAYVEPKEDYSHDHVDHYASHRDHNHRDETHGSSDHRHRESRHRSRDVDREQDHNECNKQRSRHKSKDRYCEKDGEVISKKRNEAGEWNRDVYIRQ
# T6 sequence (P54289 25-946 partner limits assumed): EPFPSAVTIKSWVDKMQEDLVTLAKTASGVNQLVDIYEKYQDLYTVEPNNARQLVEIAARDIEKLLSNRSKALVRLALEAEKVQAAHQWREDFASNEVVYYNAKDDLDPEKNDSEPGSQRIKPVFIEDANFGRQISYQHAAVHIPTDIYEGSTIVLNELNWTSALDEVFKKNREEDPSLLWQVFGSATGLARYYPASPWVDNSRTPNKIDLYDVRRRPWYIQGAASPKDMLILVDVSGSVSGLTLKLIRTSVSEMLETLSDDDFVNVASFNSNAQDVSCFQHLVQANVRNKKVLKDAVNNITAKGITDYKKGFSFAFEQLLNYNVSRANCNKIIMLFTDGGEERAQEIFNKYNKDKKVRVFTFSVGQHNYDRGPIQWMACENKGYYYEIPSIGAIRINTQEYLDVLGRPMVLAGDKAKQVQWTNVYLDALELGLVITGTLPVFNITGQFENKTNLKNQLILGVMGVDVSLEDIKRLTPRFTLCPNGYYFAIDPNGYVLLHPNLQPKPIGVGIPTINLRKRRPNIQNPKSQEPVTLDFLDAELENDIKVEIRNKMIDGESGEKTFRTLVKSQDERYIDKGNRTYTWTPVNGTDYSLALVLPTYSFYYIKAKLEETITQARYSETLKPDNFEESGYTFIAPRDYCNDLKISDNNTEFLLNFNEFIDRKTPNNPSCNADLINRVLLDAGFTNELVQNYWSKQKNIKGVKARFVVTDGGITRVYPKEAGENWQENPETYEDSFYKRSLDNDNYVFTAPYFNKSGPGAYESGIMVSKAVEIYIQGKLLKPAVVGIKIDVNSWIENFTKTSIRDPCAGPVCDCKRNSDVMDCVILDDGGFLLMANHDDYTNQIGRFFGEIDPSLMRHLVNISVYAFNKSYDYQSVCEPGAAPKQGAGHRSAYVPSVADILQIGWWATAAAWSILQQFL
# T6 sequence (P54289 947-1103 partner limits assumed): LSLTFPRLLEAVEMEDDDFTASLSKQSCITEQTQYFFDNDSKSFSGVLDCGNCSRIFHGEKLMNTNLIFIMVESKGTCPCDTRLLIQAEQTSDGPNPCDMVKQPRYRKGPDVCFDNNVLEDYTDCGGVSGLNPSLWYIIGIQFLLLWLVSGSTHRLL
# Protocol: as §1
# [7] = target: T7, voltage-gated sodium channel NaV1.5 (Homo sapiens, UniProt Q14524); test: CiPA cell-based QPatch ion channel inhibition; details: maximum concentration of 30 uM
# T7 construct: Eurofins Discovery Services (Eurofins Panlabs Inc) ran the assay
# Protocol: as §1
# T1 sequence (P33261 whole entry): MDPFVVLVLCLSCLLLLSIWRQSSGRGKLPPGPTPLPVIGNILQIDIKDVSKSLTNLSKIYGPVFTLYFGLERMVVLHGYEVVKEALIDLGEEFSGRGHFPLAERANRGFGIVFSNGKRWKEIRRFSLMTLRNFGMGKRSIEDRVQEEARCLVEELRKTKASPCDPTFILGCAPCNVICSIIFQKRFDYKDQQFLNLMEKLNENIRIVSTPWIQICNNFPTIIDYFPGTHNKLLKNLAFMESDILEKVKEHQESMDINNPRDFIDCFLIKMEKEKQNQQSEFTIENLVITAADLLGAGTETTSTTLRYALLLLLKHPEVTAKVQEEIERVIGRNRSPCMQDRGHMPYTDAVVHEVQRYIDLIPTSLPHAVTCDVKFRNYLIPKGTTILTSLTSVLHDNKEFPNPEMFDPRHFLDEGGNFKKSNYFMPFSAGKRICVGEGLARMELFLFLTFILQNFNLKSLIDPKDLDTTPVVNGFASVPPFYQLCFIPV
smiles,measurement,setting,value
"CCCCC(C)C=C1CN2CCCC2C(C)(O)C1 (centres unmarked) [PTX 251D, pumiliotoxin (PTX 251D)]",clearance of PTX 251D by CYP2C19,[1],minimal clearance
same,clearance of PTX 251D by CYP2C8,[2],minimal clearance
same,PTX 251D remaining after incubation with CYP2D6,[3]; after 15 minutes,most of the initial compound depleted
same,clearance of PTX 251D by CYP2D6,"[3]; percent compound remaining at 0-60 minutes, HPLC-MS/MS",rapid clearance
same,inhibitory effect on Kv4.3/KChIP2,[4],no inhibitory effect
same,inhibitory effect on hERG,[5],no inhibitory effect
same,inhibitory effect on Cav1.2,[6],no inhibitory effect
same,inhibitory effect on NaV1.5,[7],no inhibitory effect
